Row | melting point | SMILES
1 | 43 °C | CN1C(=O)N(CC[C@@H](NS(=O)(=O)c2ccc(-c3ccc(Cl)cc3)cc2)C(=O)O)C(=O)C1(C)C [Example 35, (2R)-(4′-Chlorobiphenyl-4-sulfonylamino)-4-(3,4,4-trimethyl-2,5-dioxoimidazolidin-1-yl)-butyric Acid]
2 | 139 to 141 °C | O=C(NO)[C@@H](CC(=O)N1CCOCC1)NS(=O)(=O)c1ccc(-c2ccc(Cl)cc2)cc1 [Example 45, (2R)-(4′-Chlorobiphenyl-4-sulfonylamino)-4-morpholin-4-yI-4-oxobutyric Acid Hydroxyamide]
3 | 144 to 146 °C | O=C(O)[C@@H](CC(=O)N1CCOCC1)NS(=O)(=O)c1ccc(-c2ccc(Cl)cc2)cc1 [Example 43, (2R)-(4′-Chlorobiphenyl-4-sulfonylamino)-4-morpholin-4-yl-4-oxobutyric Acid]
4 | 147 to 149 °C | O=C(O)[C@@H](CC(=O)N1CCOCC1)NS(=O)(=O)c1ccc(Oc2ccccc2)cc1 [Example 42, (2R)-(4-Phenyloxybenzenesulfonylamino)-4-morpholin-4-yl-4-oxobutyric Acid]
5 | 78 to 80 °C | CC1(C)NC(=O)N(CCCCC(NS(=O)(=O)c2ccc(-c3ccc(Cl)cc3)cc2)C(=O)O)C1=O [Example 32, (2R,S)-(4′-Chlorobiphenyl-4-sulfonylamino)-6-(4,4-dimethyl-2,5-dioxoimidazolidin-1-yl)-hexanoic Acid]
6 | 117 to 120 °C | CN1C(=O)N(CC[C@@H](NS(=O)(=O)c2ccc(-c3ccc(Cl)cc3)cc2)C(=O)NO)C(=O)C1(C)C [Example 38, (2R)-(4′-Chlorobiphenyl-4-sulfonylamino)-4-(3,4,4-trimethyl-2,5-dioxoimidazolidin-1-yl)-butyric Acid Hydroxyamide]
7 | 218 °C (dec.) | Cn1c(=O)n(CC(NS(=O)(=O)c2ccc(-c3ccc(Cl)cc3)cc2)C(=O)O)c(=O)c2ccccc21 [Example 40, (2R,S)-(4′-Chlorobiphenyl-4-sulfonylamino)-3-(1,2,3,4-tetrahydro-1-methyl-2,4-dioxoquinazolin-3-yl)propanoic Acid]
8 | 70 °C | O=C(O)[C@@H](CCN1C(=O)[C@@H]2Cc3ccccc3CN2C1=O)NS(=O)(=O)c1ccc(-c2ccc(Cl)cc2)cc1 [Example 36, (2R)-(4′-Chlorobiphenyl-4-sulfonylamino)-4-[(1,3-dioxo-1,5,10, (10aS)-tetrahydroimidazo-[1,5-b]isoquinolin-2-yl)]butyric Acid]
9 | 161 to 163 °C | O=C(NO)[C@@H](CC(=O)N1CCOCC1)NS(=O)(=O)c1ccc(Oc2ccccc2)cc1 [Example 44, (2R)-(4-Phenyloxybenzenesulfonylamino)-4-morpholin-4-yl-4-oxobutyric Acid Hydroxyamide]
10 | 208 to 210 °C | Cn1c(=O)n(CCCCC(NS(=O)(=O)c2ccc(-c3ccc(Cl)cc3)cc2)C(=O)O)c(=O)c2ccccc21 [Example 31, (2R,S)-(4′-Chlorobiphenyl-4-sulfonylamino)-6-(1,2,3,4-tetrahydro-1-methyl-2,4-dioxoquinazolin-3-yl)hexanoic Acid]
11 | 198 to 201 °C | CN1C(=O)N(CC(NS(=O)(=O)c2ccc(-c3ccc(Cl)cc3)cc2)C(=O)O)C(=O)C1(C)C [Example 39, (2R,S)-(4′-Chlorobiphenyl-4-sulfonylamino)-3-(3,4,4-trimethyl-1,2,5-dioxoimidazolidin-1-yl)propanoic Acid]

The next lines start with the molecule.

Row | SMILES | melting point
12 | Cn1c(=O)n(CCC[C@@H](NS(=O)(=O)c2ccc(-c3ccccc3)cc2)C(=O)O)c(=O)c2ccccc21 [Example 5, (2R)-(4-Biphenylsulfonylamino)-5-(1,2,3,4-tetrahydro-1-methyl-2,4-dioxoquinazolin-3-yl)pentanoic Acid] | 222 to 224 °C
13 | Cn1c(=O)n(CCC[C@@H](NS(=O)(=O)c2ccc(-c3ccc(Cl)cc3)cc2)C(=O)NO)c(=O)c2ccccc21 [Example 19, (2R)-(4′-Chlorobiphenyl-4-sulfonylamino)-5-(1,2,3,4-tetrahydro-1-methyl-2,4-dioxoquinazolin-3-yl)pentanoic Acid Hydroxyamide] | 235 °C
14 | Cn1c(=O)n(CCC[C@@H](NS(=O)(=O)c2ccc(-c3ccccc3)cc2)C(=O)NO)c(=O)c2ccccc21 [Example 20, (2R)-(4-Biphenylsulfonylamino)-5-(1,2,3,4-tetrahydro-1-methyl-2,4-dioxoquinazolin-3-yl)pentanoic Acid Hydroxyamide] | 202 to 203 °C
15 | O=C(NO)[C@@H](CCCN1C(=O)c2ccccc2S1(=O)=O)NS(=O)(=O)c1ccc(-c2ccc(Cl)cc2)cc1 [Example 18, (2R)-(4′-Chlorobiphenyl-4-sulfonylamino)-5-(1,1,3-trioxo-2,3-dihydrobenzoisothiazol-2-yl)pentanoic Acid Hydroxyamide] | 200 to 205 °C (dec.)
16 | O=C(O)[C@@H](CCCN1C(=O)c2ccccc2C1=O)NS(=O)(=O)c1ccc(-c2ccc(Cl)cc2)cc1 [Example 1, (2R)-(4′-Chlorobiphenyl-4-sulfonylamino)-5-(1,3-dioxo-1,3-dihydroisoindol-2-yl)pentanoic Acid] | 179 to 181 °C
17 | O=C(NO)[C@@H](CCCN1C(=O)c2ccccc2C1=O)NS(=O)(=O)c1ccc(-c2ccc(Cl)cc2)cc1 [Example 2, (2R)-(4′-Chiorobiphenyl4-sulfonylamino)-5-(1,3-dioxo-1,3-dihydroisoindol-2-yl)pentanoic Acid Hydroxyamide] | 204 to 206 °C (dec.)
18 | O=C(O)[C@@H](CCCN1C(=O)c2ccccc2S1(=O)=O)NS(=O)(=O)c1ccc(-c2ccc(Cl)cc2)cc1 [Example 3, (2R)-(4′-Chlorobiphenyl-4-sulfonylamino)-5-(1,1,3-trioxo-2,3-dihydrobenzoisothiazol-2-yl)pentanoic Acid] | 177 to 179 °C
19 | Cc1ccc(S(=O)(=O)NCCC[C@@H](NS(=O)(=O)c2ccc(-c3ccc(Cl)cc3)cc2)C(=O)O)cc1 [Example 7, (2R)-(4′-Chlorobiphenyl-4-sulfonylamino)-5-(4-methylbenzenesulfonylamino)pentanoic Acid] | 62 °C
20 | Cn1c(=O)n(CCC[C@@H](NS(=O)(=O)c2ccc(-c3ccc(Cl)cc3)cc2)C(=O)O)c(=O)c2ccccc21 [Example 4, (2R)-(4′-Chlorobiphenyl-4-sulfonylamino)-5-(1,2,3,4-tetrahydro-1-methyl-2,4-dioxoquinazolin-3-yl)pentanoic Acid] | 188 to 191 °C

Reference: patent US6410580B1, “Sulfonylamino derivatives which inhibit matrix-degrading metalloproteinases” (Novartis AG, priority 2000, dated 2002)
